Columns and labels:
hPR-B = experiment: PR-B transcription assay (MTV-LUC reporter, SK-N-MC cells); type: cell-based, human; details: 10^-7 mol/l test compound relative to R5020 10^-7 mol/l, 24 hours, 0.1 µM
Experimental: (§1) The method for screening for PR isoform-specific progestins according to the present invention is carried out with first and second SK-N-MC cells stably transfected with a plasmid expressing the hPR-A (first cells) or the hPR-B (second cells) and the LUC reporter gene linked to the hormonally responsive MTV promoter.
The cells are cultured in Minimum Essential Medium with Earl's Salts (S-MEM, without L-glutamine; Gibco BRL, no. 21090-022), supplemented with 10 % fetal calf serum (FCS), penicillin 100U/streptomycin 100 µg/ml (Biochrom, no. A2213), L-glutamine 4 mmol/l (Gibco BRL, no. 25030-024), sodium pyruvate 1 mmol/l (Biochrom, no. L0473) and 1x non-essential amino acids (Biochrom, no. K0293) at a temperature of 37 °C and in an atmosphere of 5 % carbon dioxide.
(§2) For the transcription assay, the cells are seeded onto 96-well dishes (2x 10^4 cells/dish) and cultured in a medium as described above, with the exception that the FCS is replaced by a 3 % charcoal stripped FCS. 48 hours later, cells are contacted with prediluted test compounds. For determination of agonistic activity, cells are cultured in the presence of increasing concentrations (10^-6 to 10^-11 mol/l) of test progestins. As a positive control for reporter gene induction cells are treated with 10^-6 to 10^-11 mol/l R5020 (promegestone). As a negative control for reporter gene induction, cells are cultured in 1 % ethanol.
After incubation with test progestins for 24 hours, the medium is removed and cells are lysed with 20 µl of lysis buffer (Luciferase Assay System E 153A; Promega) and under agitation of the plate for 10 min. After addition of 30 µl of luciferase reagent (Luciferase Assay System E 151A + 152A; Promega) within 30 seconds per plate, the activity of the luciferase reporter gene product is determined in the cell lysates by means of a Microlite ML 3000 microtiter plate luminometer (Dynatech) in cycle mode.
(§3) Evaluation of the response gives the efficacy [%], and evaluation of the EC50 values gives the potency [nM]. Calculation of the agonistic activity is conducted as follows:
(§4) The LUC activity [%] for the measured data points is calculated as follows: relative LUC activity [%] = 100 x((response 10)^-6 (to 10)^-11 mol/l test compound - CO)/(CI - CO) [formula] wherein CI = 100 % stimulation (R5020, 10^-7 mol/l) and CO = 0 % stimulation (ethanol, 1 %).
(§5) Thus, the efficacy [%] is calculated according to: efficacy [%] = 100 x((response 10)^-7 mol/l test compound - CO)/(CI - CO) [formula]
(§6) The potency [nM], i.e. the EC50, is determined graphically.

hPR-A = experiment: PR-A transcription assay (MTV-LUC reporter, SK-N-MC cells); type: cell-based, human; details: 10^-7 mol/l test compound relative to R5020 10^-7 mol/l, 24 hours, 0.1 µM
Experimental: as §1, §2, §3, §4, §5, §6

[1] = biological target: T1, mineralocorticoid receptor (MR) (Homo sapiens, UniProt P08235); experiment: Mineralocorticoid receptor binding; details: in vitro
T1 sequence (P08235 1-984): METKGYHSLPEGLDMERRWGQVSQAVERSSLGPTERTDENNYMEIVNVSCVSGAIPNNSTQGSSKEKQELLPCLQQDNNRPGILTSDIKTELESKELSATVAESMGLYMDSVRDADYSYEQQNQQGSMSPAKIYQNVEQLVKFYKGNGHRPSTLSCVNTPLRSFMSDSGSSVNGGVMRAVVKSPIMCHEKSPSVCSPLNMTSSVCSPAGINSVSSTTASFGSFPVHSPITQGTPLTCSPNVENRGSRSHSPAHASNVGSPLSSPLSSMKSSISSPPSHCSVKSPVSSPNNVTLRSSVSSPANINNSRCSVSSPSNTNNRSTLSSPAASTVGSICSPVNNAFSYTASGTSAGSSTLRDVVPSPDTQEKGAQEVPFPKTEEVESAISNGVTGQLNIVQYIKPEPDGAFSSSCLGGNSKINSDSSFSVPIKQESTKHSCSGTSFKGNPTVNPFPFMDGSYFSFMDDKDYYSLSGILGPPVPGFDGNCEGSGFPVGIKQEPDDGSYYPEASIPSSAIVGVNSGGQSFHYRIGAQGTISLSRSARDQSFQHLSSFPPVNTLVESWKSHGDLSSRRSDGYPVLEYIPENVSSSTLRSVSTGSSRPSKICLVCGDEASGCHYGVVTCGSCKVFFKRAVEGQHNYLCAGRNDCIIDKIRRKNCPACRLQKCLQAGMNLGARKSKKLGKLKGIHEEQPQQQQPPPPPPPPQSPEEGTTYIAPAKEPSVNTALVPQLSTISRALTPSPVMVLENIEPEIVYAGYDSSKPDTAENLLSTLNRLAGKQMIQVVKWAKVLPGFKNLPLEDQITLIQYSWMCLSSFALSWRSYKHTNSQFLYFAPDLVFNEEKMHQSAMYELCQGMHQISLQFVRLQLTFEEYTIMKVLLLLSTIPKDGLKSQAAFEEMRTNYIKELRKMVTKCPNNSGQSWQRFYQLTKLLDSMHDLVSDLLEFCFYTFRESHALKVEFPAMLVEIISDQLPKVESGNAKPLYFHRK

[2] = Glucocorticoid / anti-glucocorticoid activity in vivo (changes in thymus weight); details: concluded from changes in thymus weight

O=C1OCc2cc(NC(=O)C(O)(CC3(c4cc(C(F)(F)F)ccc4F)CC3)C(F)(F)F)ccc21 (single isomer, unassigned; (+)) [((+)-1), (+)-5-{2-hydroxy-3-[1-(2-fluoro-5-trifluoromethylphenyl)-cyclopropyl]-2-trifluoromethyl-propionylamino}-phthalide]
PR-B agonism efficacy (hPR-B): 25% | PR-A agonism efficacy (hPR-A): 88.7% | affinity for the mineralocorticoid receptor (MR) [1]: negligible | glucocorticoid or anti-glucocorticoid activity in vivo [2]: does not seem to exhibit any glucocorticoid or any anti-glucocorticoid activity
